According to PubChem BioAssay (NCI):
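Each compound was tested at five concentrations against cells in 96-well plates for 48 hours. GI50: concentration for 50% inhibition of growth. TGI: concentration producing complete growth inhibition.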

Key:
Test in all cases: NCI anticancer screen, dose series, 48 h
HS 578T breast = test system: HS 578T breast
OVCAR-8 ovarian = test system: OVCAR-8 ovarian
NCI/ADR-RES ovarian = test system: NCI/ADR-RES ovarian
TK-10 renal = test system: TK-10 renal
HOP-92 NSCLC = test system: HOP-92 NSCLC
HOP-62 NSCLC = test system: HOP-62 NSCLC
COLO 205 colon = test system: COLO 205 colon
UO-31 renal = test system: UO-31 renal
K-562 leukemia = test system: K-562 leukemia
SF-268 CNS = test system: SF-268 CNS
A498 renal = test system: A498 renal
OVCAR-4 ovarian = test system: OVCAR-4 ovarian
DU-145 prostate = test system: DU-145 prostate
HCT-15 colon = test system: HCT-15 colon
NCI-H226 lung = test system: NCI-H226 lung
UACC-62 melanoma = test system: UACC-62 melanoma
HT29 colon = test system: HT29 colon
MDA-MB-435 = test system: MDA-MB-435
MDA-MB-231 breast = test system: MDA-MB-231 breast
MCF7 breast = test system: MCF7 breast
NCI-H522 lung = test system: NCI-H522 lung
SF-539 CNS = test system: SF-539 CNS
MOLT-4 leukemia = test system: MOLT-4 leukemia
SK-MEL-28 melanoma = test system: SK-MEL-28 melanoma
EKVX NSCLC = test system: EKVX NSCLC
OVCAR-5 ovarian = test system: OVCAR-5 ovarian
HL-60(TB) leukemia = test system: HL-60(TB) leukemia
OVCAR-3 ovarian = test system: OVCAR-3 ovarian
M14 melanoma = test system: M14 melanoma

SMILES: CCCCCCCCCCCCCCCc1cc(O)ccc1N
- GI50 (HS 578T breast): 17 µM
- TGI (HS 578T breast): 99.4 µM
- GI50 (OVCAR-8 ovarian): 43.5 µM
- TGI (OVCAR-8 ovarian): > 100 µM
- GI50 (NCI/ADR-RES ovarian): 5.81 µM
- TGI (NCI/ADR-RES ovarian): 68.8 µM
- GI50 (TK-10 renal): > 63 µM
- TGI (TK-10 renal): > 100 µM
- GI50 (HOP-92 NSCLC): 12.4 µM
- TGI (HOP-92 NSCLC): 93.7 µM
- GI50 (HOP-62 NSCLC): > 100 µM
- TGI (HOP-62 NSCLC): > 100 µM
- GI50 (COLO 205 colon): > 9.96 µM
- TGI (COLO 205 colon): > 62.5 µM
- GI50 (UO-31 renal): 0.685 µM
- TGI (UO-31 renal): 9.36 µM
- GI50 (K-562 leukemia): 10.7 µM
- TGI (K-562 leukemia): > 38 µM
- GI50 (SF-268 CNS): 4.33 µM
- TGI (SF-268 CNS): 23.9 µM
- GI50 (A498 renal): 21.7 µM
- TGI (A498 renal): 75.3 µM
- GI50 (OVCAR-4 ovarian): 1.23 µM
- TGI (OVCAR-4 ovarian): 3.77 µM
- GI50 (DU-145 prostate): > 100 µM
- TGI (DU-145 prostate): > 100 µM
- GI50 (HCT-15 colon): 45.8 µM
- TGI (HCT-15 colon): > 100 µM
- GI50 (NCI-H226 lung): 8.38 µM
- TGI (NCI-H226 lung): > 49.2 µM
- GI50 (UACC-62 melanoma): 13.2 µM
- TGI (UACC-62 melanoma): > 100 µM
- GI50 (HT29 colon): > 100 µM
- TGI (HT29 colon): > 100 µM
- GI50 (MDA-MB-435): > 100 µM
- TGI (MDA-MB-435): > 100 µM
- GI50 (MDA-MB-231 breast): > 31.1 µM
- TGI (MDA-MB-231 breast): > 100 µM
- GI50 (MCF7 breast): 23 µM
- TGI (MCF7 breast): > 100 µM
- GI50 (NCI-H522 lung): 0.127 µM
- TGI (NCI-H522 lung): 0.452 µM
- GI50 (SF-539 CNS): 0.702 µM
- TGI (SF-539 CNS): 2.19 µM
- GI50 (MOLT-4 leukemia): 0.183 µM
- TGI (MOLT-4 leukemia): > 24.8 µM
- GI50 (SK-MEL-28 melanoma): > 67.3 µM
- TGI (SK-MEL-28 melanoma): > 100 µM
- GI50 (EKVX NSCLC): > 50.6 µM
- TGI (EKVX NSCLC): > 100 µM
- GI50 (OVCAR-5 ovarian): 28 µM
- TGI (OVCAR-5 ovarian): > 100 µM
- GI50 (HL-60(TB) leukemia): 0.142 µM
- TGI (HL-60(TB) leukemia): 0.532 µM
- GI50 (OVCAR-3 ovarian): 5.1 µM
- TGI (OVCAR-3 ovarian): > 27.9 µM
- GI50 (M14 melanoma): > 100 µM
- TGI (M14 melanoma): > 100 µM
